Article PMC5225454, “A Comprehensive Evaluation of the Activity and Selectivity Profile of Ligands for RGD-binding Integrins” (Scientific Reports, 2017)
“And” between values parts separate entries of the source, which are not always exact repeats. Equal values may be shown once. Read-outs that look alike come from different tables or passages of the source. Positions of bridges follow the written chain, without caps; N, C: chain ends. Non-standard residues stand in square brackets, D forms with d. Residues, ends and D or L forms follow the SMILES beside them. Groups on a side chain read outwards from the residue. *: point of attachment. X1 = O=C(COCC(=O)*)NCCOCCOCCOCCOCCOCCNC(=O)CO/N=C/c1ccc(F)cc1; X2 = NC(=O)COCC(=O)NCCOCCOCCOCCN*; dPhg = N[C@@H](C(=O)O)c1ccccc1; AEEA = NCCOCCOCC(=O)O; Mpa = O=C(O)CCS

How the values were obtained:
α5β1 integrin [1] = target: T1, α5β1 integrin (Homo sapiens, UniProt P05556+P08648); assay: ELISA-like solid-phase binding assay, soluble integrin α5β1 vs coated fibronectin; set-up: purchased R&D
human αvβ6-Integrin = target: T2, human αvβ6-Integrin (Homo sapiens, UniProt P06756+P18564); assay: ELISA-like solid-phase binding assay, soluble integrin αvβ6 vs coated LAP (TGF-β); conditions: for IC50: coated LAP, soluble integrin, referenced to internal standard
T2 construct: purchased R&D

human αvβ8-Integrin = target: T3, human αvβ8-Integrin (Homo sapiens, UniProt P06756+P26012); assay: ELISA-like solid-phase binding assay, soluble integrin αvβ8 vs coated LAP (TGF-β); conditions: referenced to internal standard
T3 construct: purchased R&D

human αvβ3-integrin = target: T4, human αvβ3-integrin (Homo sapiens, UniProt P05106+P06756); assay: ELISA-like solid-phase binding assay, soluble integrin αvβ3 vs coated vitronectin; conditions: for IC50: coated vitronectin, soluble integrin, referenced to internal standard
T4 construct: purchased R&D

[2] = target: T5, human platelet integrin αIIbβ3 (Homo sapiens, UniProt P05106+P08514); assay: ELISA-like solid-phase binding assay, soluble integrin αIIbβ3 vs coated fibrinogen; conditions: referenced to internal standard
T5 construct: purchased VWR
T5 sequence (P08514 32-1039): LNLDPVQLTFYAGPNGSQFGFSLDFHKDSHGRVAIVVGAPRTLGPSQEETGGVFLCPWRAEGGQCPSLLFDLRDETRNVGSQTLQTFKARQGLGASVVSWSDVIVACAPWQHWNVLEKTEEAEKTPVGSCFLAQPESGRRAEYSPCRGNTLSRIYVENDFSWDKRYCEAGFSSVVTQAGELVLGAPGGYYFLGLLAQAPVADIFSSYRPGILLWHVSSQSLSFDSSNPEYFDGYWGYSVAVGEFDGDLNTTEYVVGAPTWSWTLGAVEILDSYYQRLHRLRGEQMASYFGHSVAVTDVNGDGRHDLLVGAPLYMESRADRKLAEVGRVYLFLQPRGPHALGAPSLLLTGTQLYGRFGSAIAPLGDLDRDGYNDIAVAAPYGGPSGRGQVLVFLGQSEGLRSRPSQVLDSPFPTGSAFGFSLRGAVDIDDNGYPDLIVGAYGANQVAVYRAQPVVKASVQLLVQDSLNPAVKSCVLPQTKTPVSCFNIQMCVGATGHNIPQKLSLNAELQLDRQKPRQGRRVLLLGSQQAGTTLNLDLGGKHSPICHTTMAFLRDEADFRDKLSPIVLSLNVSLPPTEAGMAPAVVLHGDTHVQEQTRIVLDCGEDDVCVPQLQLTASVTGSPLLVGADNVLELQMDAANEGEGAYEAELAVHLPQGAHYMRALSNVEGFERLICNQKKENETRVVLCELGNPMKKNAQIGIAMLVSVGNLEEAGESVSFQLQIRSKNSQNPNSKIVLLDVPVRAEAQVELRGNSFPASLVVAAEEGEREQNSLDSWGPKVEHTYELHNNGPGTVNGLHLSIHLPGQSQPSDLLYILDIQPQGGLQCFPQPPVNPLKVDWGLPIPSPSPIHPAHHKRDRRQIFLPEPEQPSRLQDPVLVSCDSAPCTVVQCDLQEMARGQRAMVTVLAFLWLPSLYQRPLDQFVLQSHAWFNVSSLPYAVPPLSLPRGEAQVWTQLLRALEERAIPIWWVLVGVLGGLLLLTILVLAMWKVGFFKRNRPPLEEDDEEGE
T5 sequence (P05106 27-788): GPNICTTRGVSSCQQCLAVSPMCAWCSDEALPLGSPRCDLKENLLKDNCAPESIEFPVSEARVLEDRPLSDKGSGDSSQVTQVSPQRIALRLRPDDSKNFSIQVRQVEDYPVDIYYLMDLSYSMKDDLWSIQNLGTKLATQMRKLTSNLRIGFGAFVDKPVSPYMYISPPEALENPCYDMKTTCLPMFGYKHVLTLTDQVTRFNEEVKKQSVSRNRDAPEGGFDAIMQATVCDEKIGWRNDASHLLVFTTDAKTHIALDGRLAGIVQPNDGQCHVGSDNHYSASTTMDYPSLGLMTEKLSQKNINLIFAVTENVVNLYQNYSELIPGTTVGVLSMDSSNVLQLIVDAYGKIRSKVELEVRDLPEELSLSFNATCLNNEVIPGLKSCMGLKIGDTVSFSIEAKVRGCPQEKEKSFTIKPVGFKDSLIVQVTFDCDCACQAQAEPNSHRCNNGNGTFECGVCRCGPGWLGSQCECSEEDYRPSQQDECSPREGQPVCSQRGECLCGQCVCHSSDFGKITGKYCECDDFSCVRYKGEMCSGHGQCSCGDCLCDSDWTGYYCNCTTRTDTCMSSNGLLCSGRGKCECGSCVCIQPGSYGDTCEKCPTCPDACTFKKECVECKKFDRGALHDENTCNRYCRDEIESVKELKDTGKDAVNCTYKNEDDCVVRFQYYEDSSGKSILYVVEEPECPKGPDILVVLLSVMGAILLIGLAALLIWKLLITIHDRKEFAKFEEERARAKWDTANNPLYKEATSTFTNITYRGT

human αvβ5-integrin = target: T6, human αvβ5-integrin (Homo sapiens, UniProt P06756+P18084); assay: ELISA-like solid-phase binding assay, soluble integrin αvβ5 vs coated vitronectin; conditions: referenced to internal standard
T6 construct: purchased Millipore
T6 sequence (P06756 31-1048): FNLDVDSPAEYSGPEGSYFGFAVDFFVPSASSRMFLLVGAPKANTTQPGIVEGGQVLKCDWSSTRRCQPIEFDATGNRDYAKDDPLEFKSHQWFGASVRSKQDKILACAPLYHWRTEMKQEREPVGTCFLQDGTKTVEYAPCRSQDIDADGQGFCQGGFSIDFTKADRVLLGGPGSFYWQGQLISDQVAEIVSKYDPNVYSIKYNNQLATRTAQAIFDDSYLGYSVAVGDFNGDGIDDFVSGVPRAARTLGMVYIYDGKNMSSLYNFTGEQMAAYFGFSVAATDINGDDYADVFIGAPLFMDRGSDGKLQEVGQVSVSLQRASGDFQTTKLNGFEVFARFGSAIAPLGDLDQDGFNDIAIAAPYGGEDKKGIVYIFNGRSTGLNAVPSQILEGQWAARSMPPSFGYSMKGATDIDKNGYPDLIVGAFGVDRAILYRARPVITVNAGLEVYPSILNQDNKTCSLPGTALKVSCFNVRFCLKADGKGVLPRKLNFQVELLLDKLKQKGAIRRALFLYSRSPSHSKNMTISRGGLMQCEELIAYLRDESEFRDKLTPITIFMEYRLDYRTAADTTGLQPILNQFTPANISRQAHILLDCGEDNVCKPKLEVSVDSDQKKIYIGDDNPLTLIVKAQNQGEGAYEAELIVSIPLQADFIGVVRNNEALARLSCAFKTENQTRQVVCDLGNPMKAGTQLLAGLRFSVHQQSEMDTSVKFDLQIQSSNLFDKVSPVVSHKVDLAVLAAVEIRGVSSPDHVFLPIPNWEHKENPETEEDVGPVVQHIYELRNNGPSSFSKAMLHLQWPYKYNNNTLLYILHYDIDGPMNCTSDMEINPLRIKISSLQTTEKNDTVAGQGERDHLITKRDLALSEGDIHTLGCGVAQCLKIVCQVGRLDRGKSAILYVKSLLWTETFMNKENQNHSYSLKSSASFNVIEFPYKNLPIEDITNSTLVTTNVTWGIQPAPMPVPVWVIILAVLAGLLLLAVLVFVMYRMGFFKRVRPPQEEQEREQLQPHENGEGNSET
T6 sequence (P18084 24-799): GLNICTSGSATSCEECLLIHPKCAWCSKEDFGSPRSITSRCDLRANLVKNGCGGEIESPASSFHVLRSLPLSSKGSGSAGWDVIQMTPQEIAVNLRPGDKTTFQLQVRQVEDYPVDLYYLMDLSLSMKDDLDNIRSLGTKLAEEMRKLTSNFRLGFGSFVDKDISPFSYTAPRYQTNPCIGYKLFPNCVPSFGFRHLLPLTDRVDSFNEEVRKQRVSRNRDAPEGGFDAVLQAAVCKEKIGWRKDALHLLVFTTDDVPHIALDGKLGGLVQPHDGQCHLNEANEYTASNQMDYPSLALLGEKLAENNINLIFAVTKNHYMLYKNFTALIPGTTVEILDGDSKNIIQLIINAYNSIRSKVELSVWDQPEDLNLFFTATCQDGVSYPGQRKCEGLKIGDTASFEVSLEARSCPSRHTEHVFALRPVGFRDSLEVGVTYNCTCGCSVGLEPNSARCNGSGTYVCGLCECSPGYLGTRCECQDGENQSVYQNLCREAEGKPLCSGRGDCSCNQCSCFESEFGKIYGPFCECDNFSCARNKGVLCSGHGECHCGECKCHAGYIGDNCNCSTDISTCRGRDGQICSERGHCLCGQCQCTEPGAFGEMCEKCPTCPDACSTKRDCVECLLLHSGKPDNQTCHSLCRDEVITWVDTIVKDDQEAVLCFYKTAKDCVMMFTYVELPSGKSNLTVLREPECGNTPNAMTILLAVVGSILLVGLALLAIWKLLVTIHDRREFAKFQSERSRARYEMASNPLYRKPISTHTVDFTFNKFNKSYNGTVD

[3] = cited from earlier work
α5β1 integrin [4] = target: T1, α5β1 integrin; assay: Solid phase binding assay with surface-coated integrin and soluble fibronectin; conditions: incubation with fibronectin, unpublished data
Description: Tests carried out in cell-free systems, use isolated extracellular domains of integrins in conjunction with ECM proteins, either extracted from human tissue or produced by recombinant methods. Most of these tests are based on competitive solid phase binding assays, in which one component is bound to the multi-well plate and in a subsequent step, soluble ligands are added, testing their capacity to block the binding to that component. Mainly two procedures are described in the literature, differing in the molecule used to coat the surfaces: the isolated integrin extracellular domains or the ECM protein. In the first case, the integrin is coated on the surface, followed by an incubation with a mixture of the native ECM protein and increasing concentrations of the ligand of interest. In an alternative test system, the natural ECM protein (vitronectin for αvβ3 and αvβ5, LAP (TGFβ) for αvβ6 and αvβ8, fibronectin for α5β1 and fibrinogen for αIIbβ3) is immobilized onto the surface, and the soluble integrin, together with a serial dilution of the inhibitory ligand, is added afterwards. The read-out in both procedures is usually done in an ELISA-like manner by using conjugated antibodies recognizing the integrin head groups. […] For a detailed description of the reference to the SI. […]

[5] = coated fibronectin, soluble integrin, referenced to internal standard, read-out: IC50 α5β1

Row | Molecule | IC50 (α5β1 integrin [1]; [5]) [µM] | IC50 (human αvβ6-Integrin) | IC50 (human αvβ8-Integrin) [µM] | IC50 (human αvβ3-integrin) [µM] | IC50 [2] [µM] | IC50 (human αvβ5-integrin) [µM] | other results
1 | N=C(N)NCCC[C@H](NC(=O)CN)C(=O)NCC(=O)N[C@@H](CC(=O)O)C(=O)N[C@@H](CC(N)=O)C(=O)N1CCC[C@H]1C(=O)O [GRGDNP] (H-GRGDNP-OH) | 0.034 ± 0.003 | > 10 µM | > 10 | 0.045 ± 0.012 | > 10 | 0.506 ± 0.12 | –
2 | N=C(N)NCCC[C@@H]1NC(=O)[C@H](CCCCN)NC(=O)[C@@H](Cc2ccccc2)NC(=O)[C@H](CC(=O)O)NC(=O)CNC1=O [c(RGDfK)] | 0.141 ± 0.015 | – | 5.2 ± 0.67 | – | > 10 | 0.34 ± 0.024 | –
3 | CC(C)C[C@H](NC(=O)[C@H](CC(=O)O)NC(=O)CNC(=O)[C@H](CCCNC(=N)N)NC(=O)[C@H](CC(C)C)NC(=O)[C@H](CC(N)=O)NC(=O)[C@@H]1CCCN1C(=O)[C@@H](NC(=O)[C@H](C)NC(=O)[C@@H](N)CC(N)=O)C(C)C)C(=O)N[C@@H](CCC(N)=O)C(=O)N[C@H](C(=O)N[C@@H](CC(C)C)C(=O)N[C@@H](C)C(=O)N[C@@H](CCC(N)=O)C(=O)N[C@@H](CCCCN)C(=O)N[C@H](C(=O)N[C@@H](C)C(=O)N[C@@H](CCCNC(=N)N)C(=O)N[C@H](C(=O)O)[C@@H](C)O)C(C)C)C(C)C [A20FMDV2] | – | – | – | – | – | – | IC50 (α5β1 integrin [1]): > 10 µM
4 | N=C(N)NCCC[C@@H]1NC(=O)CNC(=O)C[C@@H](C(=O)O)NC(=O)[C@@H](c2ccccc2)NC(=O)[C@@H](CCCCN)NC1=O [c(phgisoDGRk)] (GR[dK][dPhg]D-OH; lactam N-5) | 0.00943 ± 0.00133 | 0.018 ± 0.0025 µM | 0.077 ± 0.006 | > 10 | > 10 | > 10 | –
5 | Cc1ccnc(NCCCC(=O)NCC(=O)NC(CC(=O)O)c2ccc(-c3cccc4ccccc34)cc2)c1 (centres unmarked) [Mol11*] | 3.02 ± 0.41 | 0.0013 µM and 0.00132 µM | 0.0185 ± 0.0043 | 0.0132 ± 0.0005 | > 10 | 0.53 ± 0.049 | –
6 | N=C(N)c1ccc(N2CCN(C3CCN(CC(=O)O)CC3)CC2)cc1 [GR144053, 4-[4-[4-(aminoiminomethyl)phenyl]-1-piperazinyl]-1-piperidineacetic acid] | > 10 | > 10 µM | > 10 | > 10 | 0.018 ± 0.0022 | > 10 | –
7 | N=C(N)NCCC[C@H](N)C(=O)NCC(=O)N[C@@H](CC(=O)O)C(=O)O [RGD] | – | > 10 µM | > 10 | 0.089 ± 0.012 | > 10 | 0.44 ± 0.065 | –
8 | N=C(N)NCCC[C@@H]1NC(=O)[C@H](CCCCN)NC(=O)[C@@H](Cc2ccc(O)cc2)NC(=O)[C@H](CC(=O)O)NC(=O)CNC1=O [c(RGDyK)] | 0.236 ± 0.045 | – | > 10 | – | – | – | –
9 | CC(=O)N1CCC[C@H]1C(=O)N[C@@H](Cc1c[nH]cn1)C(=O)N[C@@H](CO)C(=O)N[C@@H](CS)C(=O)N[C@@H](CC(N)=O)C(N)=O [ATN161, Ac-PHSCN-NH2] (Ac-PHSCN-NH2) | 0.0042 ± 0.0005 | 3.13 ± 0.591 µM | > 10 | > 10 | > 10 | > 10 | –
10 | N=C(N)NCCC[C@@H]1NC(=O)[C@H](CS)NC(=O)[C@@H](Cc2ccccc2)NC(=O)[C@H](CC(=O)O)NC(=O)CNC1=O [c(RGDfC)] (cyclo(RGD[dF]C)) | 0.215 ± 0.055 | 0.121 ± 0.01 µM | > 10 | 0.0063 ± 0.0005 | > 10 | 0.433 ± 0.023 | –
11 | N=C(N)NCCC[C@@H]1NC(=O)[C@H](CCCCNC(=O)CCOCCOCCOCCOCCOCCOCCNC(=O)CCS)NC(=O)[C@@H](Cc2ccccc2)NC(=O)[C@H](CC(=O)O)NC(=O)CNC1=O [c(RGDfK)-Peg-MPA] | 0.201 ± 0.031 | 0.422 ± 0.044 µM | > 10 | 0.015 ± 0.0018 | > 10 | 0.39 ± 0.053 | –
12 | NC(N)=NCCC[C@H](N)C(=O)NCC(=O)N[C@@H](CC(=O)O)C(=O)N[C@@H](CO)C(=O)O [RGDS] | 0.181 ± 0.023 | > 10 µM | > 10 | 0.045 ± 0.005 | – | 0.433 ± 0.034 | –
13 | CC(C)C[C@H](NC(=O)[C@H](CO)NC(=O)[C@H](CC(=O)O)NC(=O)[C@H](CC(C)C)NC(=O)[C@H](CC(=O)O)NC(=O)[C@@H](NC(=O)[C@@H](N)CCCNC(=N)N)[C@@H](C)O)C(=O)N[C@@H](CCCNC(=N)N)C(=O)N[C@H](C(=O)O)[C@@H](C)O | > 10 | – | 0.32 ± 0.025 | 6.23 ± 0.54 | > 10 | > 10 | –
14 | N=C(N)NCCC[C@@H]1NC(=O)CNC(=O)C[C@@H](C(=O)O)NC(=O)[C@@H](c2ccccc2)NC(=O)[C@@H](CCCCNC(=O)COCCOCCNC(=O)CCS)NC1=O [c(phgisoDGRk)-Peg-MPA] (GR[dK]([AEEA-Mpa])[dPhg]D-OH; lactam N-5) | 0.031 ± 0.0034 | 0.052 ± 0.0048 µM | > 10 | > 10 | > 10 | > 10 | fold change of α5β1 IC50-value after functionalization (α5β1 integrin [1]; versus c(phgisoDGRk)): 2 fold; fold change of αvβ6 IC50-value after functionalization (human αvβ6-Integrin; versus c(phgisoDGRk)): 2 fold
15 | N=C(N)NCCC[C@@H]1NC(=O)[C@@H]2CSSC[C@H](NC(=O)[C@H](CC(=O)O)NC(=O)CNC1=O)C(=O)N[C@@H](Cc1ccccc1)C(=O)N[C@H](C(=O)NCCOCCOCCOCCNC(=O)COCC(N)=O)CSCC(=O)N[C@@H](CCCCN)C(=O)N2 [NC100717] ({CH2CO}-KCRGDCFC-X2; disulfide 2-6; thioether N-8; N-terminus and C-terminus assumed) | 0.82 ± 0.156 | > 10 µM | > 10 | 0.0011 ± 0.0001 | > 10 | 0.0167 ± 0.0021 | –
16 | N=C(N)NCCC[C@H](NC(=O)CN)C(=O)NCC(=O)N[C@@H](CC(=O)O)C(=O)N[C@@H](CO)C(=O)O [GRGDS] | 0.077 ± 0.008 | – | – | – | – | – | –
17 | NCCCC[C@H](NC(=O)[C@@H]1CCCN1C(=O)[C@H](CO)NC(=O)[C@H](CC(=O)O)NC(=O)CNC(=O)[C@H](CCCN=C(N)N)NC(=O)CN)C(=O)O [GRGDSPK] | 0.066 ± 0.006 | 1.03 ± 0.242 µM | > 10 | 0.0122 ± 0.0001 | > 10 | 0.201 ± 0.032 | –
18 | N=C(N)NCCC[C@H](NC(=O)CN)C(=O)NCC(=O)N[C@@H](CC(=O)O)C(=O)O [GRGD] (H-GRGD-OH) | 0.137 ± 0.014 | > 10 µM | > 10 | 0.055 ± 0.007 | > 10 | 0.58 ± 0.023 | –
19 | Echistatin | 0.00057 ± 0.00019 | – | 0.0128 ± 0.0025 | 0.00046 ± 0.00014 | 0.0009 ± 0.00024 | 0.0014 ± 0.0002 | –
20 | CC(C)[C@H]1C(=O)N[C@@H](CCCNC(=N)N)C(=O)NCC(=O)N[C@@H](CC(=O)O)C(=O)N[C@H](Cc2ccccc2)C(=O)N1C [Cilengitide, c(RGDf(NMe)V)] | – | – | – | – | – | – | half-life in man [3]: about four; systemic metabolism ([3]; man): not metabolized systemically; antagonistic activity towards coated α5β1 (α5β1 integrin [4]): low antagonistic activities
21 | C[C@@H](O)[C@H](NC(=O)[C@H](CC(=O)O)NC(=O)CNC(=O)[C@H](CCCNC(=N)N)NC(=O)CN)C(=O)N1CCC[C@H]1C(=O)O [GRGDTP] (H-GRGDTP-OH) | 0.084 ± 0.012 | > 10 µM | > 10 | 0.028 ± 0.005 | > 10 | 0.423 ± 0.065 | –
22 | CCCCS(=O)(=O)N[C@@H](Cc1ccc(OCCCCC2CCNCC2)cc1)C(=O)O [Tirofiban] | > 10 | > 10 µM | > 10 | > 10 | – | > 10 | –
23 | C[C@H](N)C(=O)N[C@H]1CSSC[C@@H](C(=O)NCC(=O)O)NC(=O)[C@H](Cc2ccccc2)NC(=O)[C@@H]2CSSC[C@H](NC(=O)[C@H](CC(=O)O)NC1=O)C(=O)N[C@@H](CCCNC(=N)N)C(=O)NCC(=O)N[C@@H](CC(=O)O)C(=O)N2 [RGD-4C] (H-ACDCRGDCFCG-OH; disulfide 2-10, 4-8) | 0.244 ± 0.037 | 0.38 ± 0.044 µM | > 10 | 0.0083 ± 0.0021 | > 10 | 0.046 ± 0.011 | IC50 αvβ8 (human αvβ8-Integrin): no affinity; IC50 αIIbβ3 [2]: no affinity
24 | N=C(N)NCCC[C@@H]1NC(=O)[C@@H]2CSSC[C@H](NC(=O)[C@H](CC(=O)O)NC(=O)CNC1=O)C(=O)N[C@@H](Cc1ccccc1)C(=O)N[C@H](C(=O)NCCOCCOCCOCCNC(=O)COCC(N)=O)CSCC(=O)N[C@@H](CCCCNC(=O)COCC(=O)NCCOCCOCCOCCOCCOCCNC(=O)CO/N=C/c1ccc(F)cc1)C(=O)N2 [Flucilatide] ({CH2CO}-K(X1)CRGDCFC-X2; disulfide 2-6; thioether N-8; N-terminus and C-terminus assumed) | – | – | – | – | – | – | fold change of αvβ3 IC50-value after functionalization (human αvβ3-integrin; versus targeting unit NC100717): 3 fold
